Earlier results, collected in patent US20220409569A1, “Cannabinoid Products with High Bioavailability” (The Chemist's Cabinet, LLC, priority 2019, published 2022).

Conditions: oral administration

Structure (SMILES) | bioavailability
C=C(C)[C@@H]1CCC(C)=C[C@H]1c1c(O)cc(CCCCC)cc1O [CBD, cannabidiol] | ~6%
CCCCCc1cc(O)c2c(c1)OC(C)(C)[C@@H]1CCC(C)=C[C@@H]21 [THC, tetrahydrocannabinol] | 4%-12%
